What was measured:
Assay in all cases: relative viability (nuclei count vs DMSO), 5 days (fraction); higher = more cells survive
AZ3146 + Pictilisib = compound: CN1CCC(CC1)OC2=CC(=C(C=C2)NC3=NC=C4C(=N3)N(C(=O)N4C)C5CCCC5)OC [AZ3146] + CS(=O)(=O)N1CCN(Cc2cc3nc(-c4cccc5[nH]ncc45)nc(N4CCOCC4)c3s2)CC1 [Pictilisib] (partner 1 µM)
Procedure, shortened: (§1)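 Relative viability was taken as the ratio of nuclei in treated wells to nuclei in vehicle wells. Lung cancer cell lines in 1536-well plates received compounds by pin tool one day after seeding, either one drug alone or a fixed anchor-drug dose plus five library-drug doses (not always all listed) in √10 steps. Nuclei were counted on 4× images after 5 days of treatment, and values are medians of duplicate plates.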

GSK-J4 + Dasatinib = compound: CCOC(=O)CCNc1cc(N2CCc3ccccc3CC2)nc(-c2ccccn2)n1 [GSK-J4] + Cc1nc(Nc2ncc(C(=O)Nc3c(C)cccc3Cl)s2)cc(N2CCN(CCO)CC2)n1 [Dasatinib] (partner 0.075 µM)
Procedure, shortened: as §1

AZ3146 + Foretinib = compound: CN1CCC(CC1)OC2=CC(=C(C=C2)NC3=NC=C4C(=N3)N(C(=O)N4C)C5CCCC5)OC [AZ3146] + COc1cc2c(Oc3ccc(NC(=O)C4(C(=O)Nc5ccc(F)cc5)CC4)cc3F)ccnc2cc1OCCCN1CCOCC1 [Foretinib] (partner 0.25 µM)
Procedure, shortened: as §1

AZ3146 + Trametinib = compound: CN1CCC(CC1)OC2=CC(=C(C=C2)NC3=NC=C4C(=N3)N(C(=O)N4C)C5CCCC5)OC [AZ3146] + CC(=O)Nc1cccc(-n2c(=O)n(C3CC3)c(=O)c3c(Nc4ccc(I)cc4F)n(C)c(=O)c(C)c32)c1 [Trametinib] (partner 0.02 µM)
Procedure, shortened: as §1

Cell Line	relative viability (AZ3146 + Pictilisib; first compound 0.08 µM)	relative viability (AZ3146 + Pictilisib; first compound 0.253 µM)	relative viability (AZ3146 + Pictilisib; first compound 0.8 µM)	relative viability (AZ3146 + Pictilisib; first compound 2.53 µM)	relative viability (AZ3146 + Pictilisib; first compound 8 µM)	relative viability (GSK-J4 + Dasatinib; first compound 0.5 µM)	relative viability (GSK-J4 + Dasatinib; first compound 1.581 µM)	relative viability (GSK-J4 + Dasatinib; first compound 5 µM)	relative viability (GSK-J4 + Dasatinib; first compound 15.81 µM)	relative viability (GSK-J4 + Dasatinib; first compound 50 µM)	relative viability (AZ3146 + Foretinib; first compound 0.08 µM)	relative viability (AZ3146 + Foretinib; first compound 0.253 µM)	relative viability (AZ3146 + Foretinib; first compound 0.8 µM)	relative viability (AZ3146 + Foretinib; first compound 2.53 µM)	relative viability (AZ3146 + Foretinib; first compound 8 µM)	relative viability (AZ3146 + Trametinib; first compound 0.08 µM)	relative viability (AZ3146 + Trametinib; first compound 0.253 µM)	relative viability (AZ3146 + Trametinib; first compound 0.8 µM)	relative viability (AZ3146 + Trametinib; first compound 2.53 µM)	relative viability (AZ3146 + Trametinib; first compound 8 µM)
NCI-H460	0.293	0.323	0.297	0.416	0.461	0.524	0.445	0.471	0.37	0.363	1.01	1.06	0.92	0.874	0.312	0.132	0.134	0.0913	0.0867	0.107
NCI-H1437	0.432	0.376	0.45	0.393	0.461	0.426	0.438	0.353	0.307	0.126	1.24	1.31	1.26	1.35	1.26	0.445	0.48	0.511	0.489	0.361
NCI-H2347	0.604	0.542	0.654	1.12	0.422	0.316	0.286	0.572		0.261	0.89	0.934	0.501	1.1	1.07	0.295	0.308	0.326	0.293	0.326
LCLC-103H	0.548	0.672	0.557	0.492	0.555	0.406	0.428	0.256	0.281	0.45	0.749	0.81	0.749	0.966	0.657	0.619	0.663	0.721	0.666	0.653
NCI-H661	0.489	0.417	0.34	0.463	0.446	0.862	0.755	0.636	0.641	0.649	0.98	1.03	0.97	0.982	0.764	0.588	0.519	0.572	0.555	0.47
NCI-H1944		0.34	0.323	0.376	0.364	0.225	0.223	0.179	0.196	0.184	0.664	0.88	0.985	0.943	0.99	0.375	0.424	0.435	0.45	0.459
NCI-H358	0.355	0.39	0.394	0.398	0.326	0.201	0.132	0.139	0.152	0.158	0.608	0.637	0.554	0.504	0.212	0.162	0.123	0.139	0.127	0.12
NCI-H2126	0.41	0.483	0.465	0.517	0.496	0.603	0.47	0.587	0.56	0.444	0.911	1.31	1.04	1.25	1.29	0.58	0.553	0.503	0.534	0.547
HCC-78		0.23	0.225	0.223	0.211	0.562	0.374	0.651	0.3	0.319	0.51	0.547	0.534	0.601	0.58		0.65	0.738	0.823	0.749
PC-14	0.68	0.763	0.725	0.71	0.518	0.252	0.271	0.204	0.285	0.255	0.891	0.9	0.969	1.02	1.02	0.728	0.821	0.818	0.796	0.694
NCI-H520	0.255	0.287	0.303	0.284	0.31	0.217	0.191	0.154	0.125	0.184	0.566	0.867	0.58	0.91	0.83	0.643	0.691	0.54	0.677	0.49
LXF-289	0.693	0.776	0.779	0.824	0.642	0.21	0.181	0.0979	0.121	0.177	0.905	0.989	0.952	0.978	0.914	0.629	0.688	0.633	0.651	0.633
NCI-H441	0.46	0.532	0.467	0.537	0.503	0.537	0.537	0.735	0.516	0.358	0.92	0.949	1.06	1	1.07	0.512	0.438	0.429	0.501	0.362
NCI-H596	0.361	0.374	0.413	0.302	0.41	0.562	0.611	0.645	0.497	0.599	0.793	0.714	0.999	0.691	0.881	0.806	0.643	0.766	0.89	0.919
NCI-H727	0.324	0.431	0.328	0.605	0.316	0.338	0.305	0.522	0.298	0.223	0.952	0.967	0.975	0.981	0.86	0.359	0.365	0.335	0.417	0.364
